From US12213959B2, “Use of 3-O-sulfamoyloxy-7β-methyl-d-homo-6-oxaestra-1,3,5(10),8(9)-tetraen-17a-one to treat breast cancer” (priority 2018, dated 2025)
Marks after values point to notes of the source that are not given here.

Legend:
[1] = test system: breast cancer cells MCF-7; settings: cited from earlier work
[2] = Body weight and tolerability during the antitumour study; settings: for Average body weight of mice (M): 4.0 mg/kg daily i.g.; for Body weight: Tamoxifen-2, 4 mg/kg, end of observation
Description: The study medicament was administered i.g. using a metal atraumatic gavage (with the procedure corresponds to the oral route of administration in clinical settings). […] Ex tempore solutions of the medicament for administration were prepared in olive oil (refined olive oil supplemented with unrefined extra virgin olive oil available under Global Village “Clasico” trademark, lot L:183351116, expiry date 26.04.2020, BAIEO, Spain). The administered volume was 0.1 ml per 10 g of a mouse body weight (0.2 ml of a ready-to-use formulation for a mouse of 20 g). The medicament administration was started 24 hours after the randomization. Duration of the administration course was 27-28 days.
This dose corresponds to a human daily dose of 20 mg/kg.
The evaluation criteria included the clinical observation data, animals body weights, time of death (if applicable), tumor growth over time, pathomorphological examination data (verification of a neoplasm during autopsy, assessment of toxic effects by macroscopic presentation of changes in the internal organs).
The animals body weights were recorded before the first administration of the medicaments and then twice per week using a verified high-speed electronic laboratory balance Ohaus Scout Pro (USA) with a maximum load of 2000 g and a measurement pitch of 0.1 g.

[3] = test system: breast tumours in FBV/N female mice, transgenic for HER-2/neu; assay: Antitumour activity on breast tumours of HER-2/neu transgenic mice; type: in vivo; settings: for Relative change of the average total volume of tumours to that of Day −1 (M): Tamoxifen-1, 4.0 mg/kg daily i.g.; for Average total volume of tumours in mice (M) / Average volume of tumors existing at the beginning of the experiment (M) / TGI (average total tumour volume) / TGI (average tumor volume): Tamoxifen-1 group; for Average total volume of tumours in mice (M) / Average volume of tumors existing at the beginning of the experiment (M): 4.0 mg/kg daily i.g.; for TGI (average total tumour volume) / TGI (average tumor volume): 4.0 mg/kg
Description: The study was carried out on female FVB mice transgenic for HER-2/neu of the conventional category, the strain being obtained from the mouse bank Charles River Laboratories (Italy).
Duration of the administration course was 27-28 days.
The control groups were given the olive oil (placebo).
The macroscopically detectable tumor nodes were measured in the animals once per week during the weighing process.

uterine body = assay: Hormonal effects on the uterine body (uterine weight); type: in vivo, mice; settings: Tamoxifen-2, 4 mg/kg, end of observation
Description: The hormonal effects of the medicament on the uterine body was analyzed by comparing the uterine weight without uterine horns at the end of the observation period (Table 13).

[4] = test system: MCF-7 human cells culture (breast adenocarcinoma); assay: Proliferative activity of MCF-7 cells; type: cell-based
Description: The study analysis was carried out on an passaged MCF-7 human cells culture culture (breast adenocarcinoma). Normal human dermal fibroblasts (HDF) of early passages were used as a negative control.
The cells were cultivated in Carrel vials in DMEM/F12 medium (Biolot) with 1.0% of antibiotic-free fetal bovine embryonic serum (Biolot) added in the 5% CO2 atmosphere, at 37° C.
The cells were seeded on Carrel vials at 50×10^4 cells per flask. To study the proliferative activity of the cells under conditions of sulfatase inhibition, 24 hours after seeding the culture medium […], and then these tumor cell lines were incubated for various periods of time (24 to 72 hrs). The inhibitor was dissolved in DMSO. […] To exclude the cytotoxic effect of DMSO, a control sample comprising DMSO without sulfatase inhibitor was prepared.
To exclude nonspecific detrimental effects of the compounds, normal human skin fibroblasts were used. Then the cells were detached with the versene-trypsin solution (Biolot), plated onto Carrel vials containing a fresh complete culture medium. The cells were counted when untreated control cells reached the maximum cell density per unit of surface area of a culture flask (monolayer), and their number was set as 100%. The proliferative activity of all of the studied cell cultures exposed to sulfatase inhibitors was determined in triplicate.

[5] = in vivo; cited from earlier work

Q: For `C[C@H]1Oc2cc(OS(N)(=O)=O)ccc2C2=C1C1=CCC[C@H](OS(N)(=O)=O)[C@@]1(C)CC2` [3,17αβ-disulfamoyloxy-7β-methyl-D-homo-6-oxa-estra-1,3,5(10), 8,14-pentaen], which “growth of breast cancer cells MCF-7” value [1] is on record?
A: inhibitor of the growth

Q: With `CC/C(=C(\c1ccccc1)c1ccc(OCCN(C)C)cc1)c1ccccc1` [Tamoxifen, reference compound] as the compound, how does the “Average body weight of mice (M)” value ([2]; Tamoxifen-1 group, Day 1) read?
A: 27.7 g

Q: And the “Average body weight of mice (M)” value ([2]; Tamoxifen-1 group, Day 6)?
A: 26.5 g

Q: What about the “Average body weight of mice (M)” value ([2]; Tamoxifen-1 group, Day 13) of the same compound?
A: 27.3 g

Q: And the “Average body weight of mice (M)” value ([2]; Tamoxifen-1 group, Day 20)?
A: 27.5 g

Q: And the “Average body weight of mice (M)” value ([2]; Tamoxifen-1 group, Day 27)?
A: 28.2 g

Q: And the Body weight ([2]; All mice)?
A: 34.2 ± 1.4 g

Q: What about the Body weight ([2]; estrous cycle phase E) of the same compound?
A: 34.2 ± 1.4 g

Q: And the “Average body weight of mice (M)” value ([2]; Tamoxifen-2 group, Day 1)?
A: 31.0 g

Q: And the “Average body weight of mice (M)” value ([2]; Tamoxifen-2 group, Day 7)?
A: 32.0 g

Q: What about the “Average body weight of mice (M)” value ([2]; Tamoxifen-2 group, Day 14) of the same compound?
A: 32.9 g

Q: What about the “Average body weight of mice (M)” value ([2]; Tamoxifen-2 group, Day 21) of the same compound?
A: 32.8 g

Q: What about the “Average body weight of mice (M)” value ([2]; Tamoxifen-2 group, Day 28) of the same compound?
A: 34.2 g

Q: And the “Relative change of the average total volume of tumours to that of Day −1 (M)” value (shortened to “Relative change … (M)”) ([3]; Day 6)?
A: 40%

Q: And the “Relative change … (M)” value ([3]; Day 13)?
A: 80** %

Q: What about the “Relative change … (M)” value ([3]; Day −1) of the same compound?
A: 0%

Q: What about the “Average total volume of tumours in mice (M)” value ([3]; Day 6) of the same compound?
A: 1 0.76 cm^3

Q: What about the “Average volume of tumors existing at the beginning of the experiment (M)” value (“Average volume of tumors existing” for short) ([3]; Day 6) of the same compound?
A: 0.26 cm^3

Q: What about the “Average total volume of tumours in mice (M)” value ([3]; Day 13) of the same compound?
A: 0.88 cm^3

Q: What about the “Average volume of tumors existing” value ([3]; Day 13) of the same compound?
A: 0.3 cm^3

Q: And the “Average volume of tumors existing” value ([3]; Day 20)?
A: 0.47 cm^3

Q: What about the “Average volume of tumors existing” value ([3]; Day 27) of the same compound?
A: 0.58 cm^3

Q: What about the “Average total volume of tumours in mice (M)” value ([3]; Day −1) of the same compound?
A: 0.66 cm^3

Q: What about the “Average volume of tumors existing” value ([3]; Day −1) of the same compound?
A: 0.23 cm^3

Q: And the “TGI (average total tumour volume)” value ([3]; vs Control-2, Day 6)?
A: −162%

Q: And the “TGI (average tumor volume)” value ([3]; vs Control-2, Day 6)?
A: −100%

Q: What about the “TGI (average total tumour volume)” value ([3]; vs Control-2, Day 13) of the same compound?
A: −35%

Q: What about the “TGI (average tumor volume)” value ([3]; vs Control-2, Day 13) of the same compound?
A: −7%

Q: And the “TGI (average total tumour volume)” value ([3]; vs Control-2, Day 20)?
A: −39%

Q: What about the “TGI (average tumor volume)” value ([3]; vs Control-2, Day 20) of the same compound?
A: −9%

Q: What about the “TGI (average total tumour volume)” value ([3]; vs Control-2, Day 27) of the same compound?
A: −21%

Q: And the “TGI (average tumor volume)” value ([3]; vs Control-2, Day 27 (end of observation))?
A: 5%

Q: And the “TGI (average total tumour volume)” value ([3]; vs Control-2, Day −1)?
A: −247%

Q: And the “TGI (average tumor volume)” value ([3]; vs Control-2, Day −1)?
A: −188%

Q: What about the “relative change in the total volume of tumours versus Control-3 group” value ([3]; Tamoxifen-2 group) of the same compound?
A: exceeded the value across the Control-3 group

Q: And the “average volume of tumours exceeded the control group by” value ([3]; Tamoxifen-2 group, end of the experiment)?
A: 31%

Q: And the Uterine weight (uterine body; All mice)?
A: 28 ± 1 MI

Q: What about the Uterine weight (uterine body; estrous cycle phase E) of the same compound?
A: 28 ± 1 MI

Q: What about the “inhibition of proliferation of MCF-7 tumour cells, compared with steroid of formula 2” value [4] of the same compound?
A: inhibited to the same extent

Q: For `C[C@]12CC[C@@H]3c4ccc(OS(N)(=O)=O)cc4CC[C@H]3[C@@H]1CCC2=O` [estrone sulfamate], which uterotropic activity [5] is on record?
A: strong uterotropic activity
